# Patent US20250388534A1 (SHENZHEN SHINEHIGH INNOVATION CO., LTD., priority 2022, published 2025)
# “And” between values parts separate entries of the source, which are not always exact repeats. Equal entries are not always repeated.
# Assays:
# melanoma cells (B16) = assay: Cytotoxicity test by melanoma cells (B16); type: cell-based; details: PC 10% DMSO
# [1] = ABTS+⋅ scavenging rate determination; details: 50 to 250 μg/mL, FIG. 7
# Method: (§1) The DPPH⋅ radical scavenging rate and ABTS^+⋅ scavenging rate are measured, and the test methods are as follows.
# ABTS^+⋅ scavenging rate determination: ABTS solution (7 mmol/L) and potassium persulfate solution (2.45 mmol/L) are mixed in a 1:1 (v/v) ratio and shaken to prepare the ABTS stock solution, which is allowed to sit at room temperature for 12 h to 16 h (protected from light). Then, the ABTS stock solution is diluted with a phosphate buffer solution of 10 mmol/L and pH 7.4, and the absorbance A0 of the diluted solution is measured at a wavelength of 734 nm, aiming to reach 0.70±0.002. For each sample solution at different mass concentrations, 50 μL is taken and mixed with 750 μL of the ABTS assay solution. The mixture is thoroughly mixed and allowed to react for 6 min. The absorbance is measured at a wavelength of 734 nm as A1, with an absolute ethanol solution used in place of the ABTS solution to measure the absorbance as A2. VC is used as a positive control during the test, and the calculation of the ABTS^+⋅ scavenging rate follows Formula (2).
# [2] = DPPH⋅ radical scavenging rate determination; details: 50 to 250 μg/mL, FIG. 6
# Method: as §1
# DPPH⋅ radical scavenging rate determination: For each sample solution at different mass concentrations, 0.2 mL is taken and mixed with 0.8 mL of a 60 μmol/L DPPH⋅ solution (prepared with absolute ethanol). The mixture is then reacted for 30 min in the dark, and the absorbance is measured at a wavelength of 517 nm as A1. The absorbance using 70% ethanol solution instead of the sample is measured as A0, and the absorbance using absolute ethanol instead of the DPPH⋅ solution is measured as A2. VC is used as a positive control during the test. The calculation of the DPPH⋅ radical scavenging rate is shown in Formula (2): […]
# [3] = Thermogravimetric analysis of thermal decomposition behavior; type: physicochemical; details: heating rate 5.0 K/min, FIG. 2
# IL-1α = assay: TPA-induced mouse ear edema model, IL-1α in ear tissue by ELISA; type: in vivo, mice; details: salt 0.8 mg/ear, mandelic acid 0.39 mg/ear
# Method: (§2) TPA-induced mouse ear edema model and administration method. Male KM mice of SPF grade weighing 20 g to 23 g are acclimatized at a temperature of 25° C. and a relative humidity of 40% to 70% for 24 h (12 h each under alternating light and dark conditions), and given sufficient food and water to allow them to eat freely. The mice are randomly divided into 6 groups: blank group (BC), negative control group (NC), positive control group (PC), and 2 treatment groups. […] After 6 h, the mice are immediately killed by breaking their necks. The ear tissues are ground in liquid nitrogen, then ground tissues are transferred to a 4 mL EP tube, and 1 mL of T-PER tissue protein extraction reagent is added. The solution is mixed thoroughly for about 30 min, and then subjected to intermittent sonication for 10 s at 20 Hz, followed by 2 min of ultrasonic treatment to fully lyse the ear tissues. The mixture is centrifuged at 4° C. and 13000 r/min for 20 min. Supernatants are collected to determine the levels of the inflammatory factors IL-1α, TNF-α, and MIP-2 in ear tissues using the ELISA method.
# [4] = tested on: chick embryo chorioallantoic membrane (CAM); assay: Eye irritation/corrosion chick embryo chorioallantoic membrane assay (irritation score IS)
# Method: The test method is as follows.
# Preparation of CAM: The viability of 9-day-old chick embryos is checked using fertilized eggs. The shell of the air cell is removed using dental serrated forceps to expose the white egg membrane, with care taken to avoid damaging the integrity of the membrane. A drop of 0.9% sodium chloride solution is added with a pipette to moisten the membrane. The inner membrane is carefully removed with forceps, ensuring that the vascular membrane is not damaged. At this point, the structure of the vascular system is observed again, and a judgment is made regarding its integrity and suitability for the test.
# Pre-test: Two chick embryos are taken to assess the reactivity of this batch, with the duration of action limited to within 5 min. […]
# Reaction evaluation method: 0.3 mL or 0.3 g of the test substance is applied to the CAM, ensuring that at least 50% of the CAM surface is covered by the test substance. The reaction of the CAM is observed, and the time at which each type of toxicity effect appears within 5 min of application is recorded.
# The irritation score (IS) is a test conducted using the reaction time method, with the irritation score (IS) calculated using Formula (3), and the results are retained to two decimal places: […]
# secH (bleeding time) refers to the average time observed for bleeding to begin on the CAM membrane, measured in seconds(s). secL (vascular lysis time) refers to the average time observed for vascular lysis to begin on the CAM membrane, measured in seconds(s). secC (clotting time) refers to the average time observed for clotting to begin on the CAM membrane, measured in seconds(s).
# MIP-2 = assay: TPA-induced mouse ear edema model, MIP-2 in ear tissue by ELISA; type: in vivo, mice; details: salt 0.8 mg/ear, mandelic acid 0.39 mg/ear
# Method: as §2
# TNF-α = assay: TPA-induced mouse ear edema model, TNF-α in ear tissue by ELISA; type: in vivo, mice; details: salt 0.8 mg/ear, mandelic acid 0.39 mg/ear
# Method: as §2
# [5] = tested on: melanin synthesis in B16 cells; assay: Inhibition of melanin synthesis in B16 cells (T/SHRH027-2019); type: cell-based
# Method: (§3) And the cellular melanin content, tyrosinase activity, and tyrosinase inhibition rate are tested within a safe concentration.
# tyrosinase = assay: In vitro tyrosinase inhibition assay (T-SHRH015-2018); type: biochemical; details: for Cellular tyrosinase activity inhibition (%): in vitro tyrosinase inhibition assay
# Method: as §3
# cellular tyrosinase = molecular target: T1, cellular tyrosinase (Mus musculus, UniProt P11344); assay: Cellular tyrosinase activity inhibition assay in B16 cells; type: cell-based
# T1 construct: endogenous in cells; host or cells: B16 melanoma cells
# T1 sequence (P11344 19-533): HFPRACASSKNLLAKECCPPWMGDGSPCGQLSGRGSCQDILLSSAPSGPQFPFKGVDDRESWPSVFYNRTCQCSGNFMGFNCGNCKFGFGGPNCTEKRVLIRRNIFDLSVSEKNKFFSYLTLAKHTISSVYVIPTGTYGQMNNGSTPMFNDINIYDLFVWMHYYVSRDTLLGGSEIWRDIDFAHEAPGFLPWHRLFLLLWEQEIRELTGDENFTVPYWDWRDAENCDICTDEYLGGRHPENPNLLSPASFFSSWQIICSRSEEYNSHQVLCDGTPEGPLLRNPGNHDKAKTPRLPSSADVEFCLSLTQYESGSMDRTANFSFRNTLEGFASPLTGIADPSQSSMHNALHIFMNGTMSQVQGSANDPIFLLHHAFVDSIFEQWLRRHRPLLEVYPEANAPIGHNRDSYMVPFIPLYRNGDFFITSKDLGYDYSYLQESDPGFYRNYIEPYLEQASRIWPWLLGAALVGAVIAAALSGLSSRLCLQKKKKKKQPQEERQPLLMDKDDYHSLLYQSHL
# Method: as §3
# [6] = mean of R1-R3, mouse ear tissue 6 h after TPA 2.0 μg/ear
# [7] = mouse ear tissue, 6 h after TPA
# [8] = replicate R1, mouse ear tissue 6 h after TPA 2.0 μg/ear
# [9] = replicate R3, mouse ear tissue 6 h after TPA 2.0 μg/ear
# [10] = reaction time method, single chick embryos 1-6, in s
# [11] = 0.0006%, 0.0012%, 0.002% (m/V), p<0.05 vs blank control
molecule,measurement,setting,value
C[S+](C)[O-] [DMSO],Cell viability (%),melanoma cells (B16),40.26% and 39.46%
O=C1O[C@H]([C@@H](O)CO)C(O)=C1O [VC],ABTS+⋅ scavenging effect (ranking),[1],best scavenging effect
same,DPPH⋅ radical scavenging effect (ranking),[2],best scavenging effect
"O=C(O)C(O)c1ccccc1 (centres unmarked) [mandelic acid, a-hydroxyphenylacetic acid]",temperature at which thermal decomposition behavior begins,[3],~135 °C
same,ABTS+⋅ scavenging effect (ranking),[1],weakest effect
same,DPPH⋅ radical scavenging effect (ranking),[2],weakest effect
same,IL-1α Concentration,IL-1α; [6],28.51 µg/mL
same,level of IL-1α compared with the negative control group,IL-1α; [7],decrease
same,"IL-1α concentration, R1",IL-1α; [8],28.59 µg/mL
same,"IL-1α concentration, R3",IL-1α; [9],29.31 µg/mL
same,irritation classification,"[4]; 2% aqueous solution of the salt, equivalent molar mandelic acid solution, CAM assay",mild irritation
same,Test result: IS,[4]; overall irritation score of 6 chick embryos,IS = 1.03
same,Bleeding severity score,"[4]; reaction time method, single chick embryos 1-6",301 s
same,Coagulation score,[4]; [10],301 and 290 and 250
same,Vascular lysis score,[4]; [10],260 and 280 and 290 and 301 and 210
same,MIP-2 Concentration,MIP-2; [6],50.82 µg/mL
same,level of MIP-2 compared with the negative control group,MIP-2; [7],decrease
same,"MIP-2 concentration, R1",MIP-2; [8],51.32 µg/mL
same,"MIP-2 concentration, R3",MIP-2; [9],50.98 µg/mL
same,TNF-α Concentration,TNF-α; [6],85.98 µg/mL
same,level of TNF-α compared with the negative control group,TNF-α; [7],decrease
same,"TNF-α concentration, R1",TNF-α; [8],85.34 µg/mL
same,"TNF-α concentration, R3",TNF-α; [9],88.27 µg/mL
NC[C@H]1CC[C@H](C(=O)O)CC1 [tranexamic acid],temperature at which thermal decomposition behavior begins,[3],around 77 °C
supramolecular tranexamic acid-citric acid ionic salt [Comparative Example 1],Inhibition rate of cell melanin content (%),[5]; 0.0006% m/V,15.32%
same,effect on cell melanin synthesis ability,[5]; [11],had an inhibitory effect on the cell melanin synthesis ability
same,Inhibition rate of cell melanin content (%),[5]; 0.0012% m/V,18.19%
same,Inhibition rate of cell melanin content (%),[5]; 0.0020% m/V,22.51%
same,Cellular tyrosinase activity inhibition (%),tyrosinase; 0.625 % m/V,5.36%
same,Cellular tyrosinase activity inhibition (%),tyrosinase; 1.25 % m/V,60.49%
same,Cellular tyrosinase activity inhibition (%),tyrosinase; 2.50 % m/V,65.38%
same,Cellular tyrosinase activity inhibition (%),tyrosinase; 5 % m/V,67.57%
same,Cellular tyrosinase activity inhibition (%),tyrosinase; 10 % m/V,69.99%
same,inhibition rate on tyrosinase,"tyrosinase; in vitro, concentrations of 1.25 to 10% (m/V)",above 60%
same,Cellular tyrosinase activity inhibition (%),cellular tyrosinase; 0.0006% m/V,2.17%
same,effect on cellular tyrosinase activity,cellular tyrosinase; [11],had an inhibitory effect on cellular tyrosinase activity
same,Cellular tyrosinase activity inhibition (%),cellular tyrosinase; 0.0012% m/V,10.05%
same,Cellular tyrosinase activity inhibition (%),cellular tyrosinase; 0.0020% m/V,11.26%
